Structures are written as SMILES.

In data set [1] the test system is blood-brain barrier. The experiment in a line: Claustrophobia test in gas chamber, EBD extravasation. It counts as in vivo, rats. As to conditions: breathing 100% O2 vs normal air, P>0.05, FIG. 6A. The text has this:
FIGS. 6A and 6B show the effects of increased pO2 on the blood-brain barrier permeability. FIG. 6A is a quantitative diagram showing the detection amount of EBD in different districts of the brain of the rats in the claustrophobia test. FIG. 6B is a quantitative diagram showing the detection amount of EBD in the blood of the rats in the claustrophobia test. The rats are placed in gas chambers and allowed to breathe either normal air or 100% O2, and then performing the claustrophobia test.

The subject of data set [2] is blood-brain barrier. The experiment in a line: Hypoventilation respiratory treatment, EBD extravasation. The following applies: hypoventilation (50 BPM) with 100% O2; FIGS. 8A, 8B. Format: in vivo, rats. As for the experimental part:
A regional metabolic acidosis is caused by a local brain activity, but more global […] can also be induced by a hypoventilation. Given that increased blood pO2 substantially potentiates the blood-brain barrier opening by CO2/H^+, we further examine whether increasing pO2 in the rats subjected to the hypoventilation could open the blood-brain barrier in this example. The rats are injected with EBD first, and the rats are grouped and treated with a respiratory treatment by different levels of ventilation. Next, quantifying the EBD extravasation into different districts of the brain of the rats after the respiratory treatment. The respiratory treatment are a physiologically rate, the hypoventilation and a general ventilation, wherein a respiratory rate of the physiologically rate is 90 BPM (breath per minute) by using a tracheotomy, the respiratory rate of the general ventilation is 80 BPM, and the respiratory rate of the hypoventilation is 50 BPM. […]
The data of the respiratory treatment is shown in Table 4 as follows and FIG. 8A-8C. […] FIG. 8B is a quantitative diagram showing the detection amount of EBD in different districts of the brain and the blood of the rats in the hypoventilation. FIG. 8C is a quantitative diagram showing the detection amount of EBD in different districts of the brain and the blood of the rats increased a ventilation rate.

The nature of data set [3]: Inactivity (sedation) of rats during the forced swimming test. On the procedure: Prostaglandin and serotonin are previously implicated in stress-mediated blood-brain barrier disruption. To examine whether prostaglandin and serotonin could contribute to opening of the blood-brain barrier, the rats are treated with indomethacin (10 mg/kg, i.p.) and cyproheptadine (15 mg/kg, i.p.) and then performing the forced swimming test, wherein indomethacincan can reduce the synthesis of prostaglandin and cyproheptadine competes with serotonin in that it acts on a postsynaptic receptor.

For data set [4], the system named is blood-brain barrier. Kind of data set: Forced swim test, EBD extravasation after drug treatment. It counts as in vivo, rats. As to conditions: EIPA 5 mg/kg i.p.; zoniporide 20 mg/kg i.p.; FIG. 4C.
Excerpt: In a forced swim test, the rats are forced to swim in an opaque tank with limited spatial information, wherein a diameter, a height and a depth of the opaque tank is 43 cm, 54 cm and 29 cm, respectively.
To examine whether the NHE contributes to metabolic blood-brain barrier disruption during stressful activity, we administer either a vehicle (i.p.) or an NHE inhibitor (i.p.) to EBD-treated rats prior to forced swimming and quantify the EBD extravasation into the brain.
Setting [5] is: indomethacin 10 mg/kg i.p., cyproheptadine 15 mg/kg i.p., EIPA 5 mg/kg i.p.

Consider `O=O` [100% O2], for which, in the data set on blood-brain barrier [1], the “increase in blood-brain barrier permeability (EBD extravasation in motor cortex, caudate/putamen, hippocampus)” value is reported as “not significant”. Further, the blood-brain barrier opening entry in the data set with blood-brain barrier [2] is recorded as “opens the blood-brain barrier”.
Regarding `CCN(c1nc(N)c(C(=O)NC(=N)N)nc1Cl)C(C)C` [EIPA, Ethylisopropyl amiloride], in data set [3] (setting [5]), the “number of the rats that remain inactive during the forced swimming test” value is listed as 0/6 and the “sedation at the dose used” value is given as “not sedative”. Further, the “EBD extravasation into the motor cortex during the forced swimming test” value with blood-brain barrier [4] was “attenuates”.
Regarding `CN1CCC(=C2c3ccccc3C=Cc3ccccc32)CC1` [cyproheptadine], in data set [3] (rat, in vivo), the “sedation at the dose used” value is “marked sedation”.
Regarding `COc1ccc2c(c1)c(CC(=O)O)c(C)n2C(=O)c1ccc(Cl)cc1` [indomethacin], in data set [3] (rat, in vivo), the “sedation at the dose used” value was “marked sedation”.
Take `N=C(N)NC(=O)c1cnn(-c2cccc3ncccc23)c1C1CC1` [zoniporide]: in the data set on blood-brain barrier [4], the “EBD extravasation into the motor cortex during the forced swimming test” value was “attenuates”.
